The values that follow come from ChEMBL document CHEMBL1201862, “PubChem BioAssay data set” (2004).

Each structure is given as a SMILES string.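 Compound exposure: 48 hours, 5 concentrations, 96-well plates. At the GI50, growth is halved.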 Active and inactive are the calls of the source. Cut-off read from the data, not from the text of the source: active = GI50 up to about 1.1 µM and inactive = higher.

Common to all, as to test: DTP human tumour cell line panel, 48 h
Experiment [1] concerns CAKI-1.
Experiment [2] deals with CCRF-CEM.
The subject of experiment [3] is HCT-116.
Experiment [4] relates to HCT-15.
For experiment [5], the system named is HL-60.
Experiment [6] has as its system HOP-92.
The test system of experiment [7] is IGROV-1.
The subject of experiment [8] is KM12.
Experiment [9] has as its system LOX IMVI.
Experiment [10] concerns NCI/ADR-RES.
In experiment [11] the test system is OVCAR-4.
Experiment [12] has as its system OVCAR-8.
Experiment [13] concerns RPMI-8226.
For experiment [14], the system named is RXF 393.
Experiment [15] concerns SF-268.
Experiment [16] concerns SF-295.
Experiment [17] has as its system SK-MEL-28.
Experiment [18] relates to SNB-19.
Experiment [19] has as its system SNB-75.
Experiment [20] has as its system TK-10.

For `CN(C)/N=C1\CC(c2ccccc2)C(C#N)(C#N)C1(C#N)C#N` (centres undefined), the GI50 (in general, the concentration that inhibits growth by half) in experiment [1] was 8.63 µM (inactive); in experiment [2] it was 6.14 µM (inactive); in [3], 17.8 µM (inactive); in experiment [4] it was 15.4 µM; in experiment [5], 2.5 µM (inactive); in [6], 14.8 µM (inactive). Further, the GI50 in experiment [7] was 21.4 µM (inactive); in experiment [8], 49.3 µM (inactive); in experiment [9] it was 27.5 µM (inactive); in experiment [10], 26.8 µM (inactive); in [11] it was 33.2 µM (inactive); in [12], 21.1 µM (inactive). Also, the GI50 in [13] is 11.8 µM (inactive); in experiment [14] it was 26.5 µM (inactive); in experiment [15], 20.1 µM (inactive); in experiment [16], 23.7 µM (inactive); in experiment [17], 19.2 µM (inactive); in [18] it was 24.5 µM (inactive). The figures for the GI50 in experiment [19] and in experiment [20] were 15.7 µM (inactive) and 17.5 µM (inactive), respectively.
In the case of `O=C1c2cc3c(cc2CC12Cc1ccc4c(c1C2=O)CCC4)CCC3` (centres undefined), the GI50 was > 100 µM (inactive) in experiment [1]; > 100 µM (inactive) in [2]; > 100 µM (inactive) in experiment [3]; > 100 µM in [4]; > 100 µM (inactive) in experiment [5]; > 100 µM (inactive) in experiment [6]. Also, the GI50 in experiment [7] is > 100 µM (inactive); in [9], > 100 µM (inactive); in experiment [10] it was > 100 µM (inactive); in [11] it was 50.6 µM (inactive); in experiment [12] it was > 100 µM (inactive); in experiment [13], > 100 µM (inactive). Further, the GI50 in experiment [14] was > 100 µM (inactive); in experiment [15], > 100 µM (inactive); in experiment [16], > 100 µM (inactive); in [17], > 100 µM (inactive); in [18], 94.6 µM (inactive); in experiment [19], > 100 µM (inactive). Besides, in experiment [20], the GI50 was > 100 µM (inactive).
With `CC1(C)OC2OC(C(=O)c3ccccc3)C3OC(C)(C)OC3C2O1` (centres undefined), the GI50 in experiment [1] was > 100 µM (inactive); in [2], > 100 µM (inactive); in experiment [3], > 100 µM (inactive); in experiment [4], > 100 µM; in experiment [5], > 100 µM (inactive); in experiment [6], > 100 µM (inactive). Also, the GI50 in [7], in experiment [8], in experiment [9], in experiment [10], in experiment [11] and in [12] was > 100 µM (inactive) in each case. Further, the GI50 in [13], in experiment [14], in [15], in [16], in experiment [18] and in experiment [19] was > 100 µM (inactive) in each case. In addition, the GI50 in experiment [20] was > 100 µM (inactive).
On to `CC(CC(C)[C@H]1CCC2[C@H]3C(CC[C@@]21C)[C@@]1(C)CCC(O)C[C@H]1C[C@@H]3O)C(=O)O` (some centres undefined), for which the GI50 in experiment [1] is > 100 µM (inactive); in experiment [2], > 100 µM (inactive); in [3], > 100 µM (inactive); in experiment [4], > 100 µM; in experiment [5] it was > 100 µM (inactive); in experiment [6], > 100 µM (inactive). The GI50 in experiment [7], in experiment [8], in experiment [9], in experiment [10], in experiment [11] and in experiment [12] was > 100 µM (inactive) each time. Further, the GI50 in experiment [13], in experiment [14], in experiment [15], in experiment [17], in experiment [18] and in experiment [19] was > 100 µM (inactive) each time. Besides, in [20], the GI50 is > 100 µM (inactive).
`CCOC(=O)C(O)(NC(C)=O)C(F)(F)F` (centres undefined): the GI50 was > 100 µM (inactive) in experiment [1]; > 100 µM (inactive) in [2]; > 100 µM (inactive) in experiment [3]; > 100 µM in [4]; 43.8 µM (inactive) in experiment [5]; 26.2 µM (inactive) in experiment [6]. Moreover, the GI50 in [7], in experiment [8], in experiment [9], in experiment [10], in [11] and in [12] was > 100 µM (inactive) throughout. In addition, the GI50 in [13], in experiment [14], in experiment [15], in [16], in experiment [17] and in [18] was > 100 µM (inactive) throughout. In addition, the GI50 in [19] and in experiment [20] was > 100 µM (inactive) throughout.
For `COC(=O)CNCC1OC2OC(C)(C)OC2C1N=[N+]=[N-]` (centres undefined), the GI50 in [1] is > 100 µM (inactive); in experiment [2] it was > 100 µM (inactive); in experiment [3], > 100 µM (inactive); in experiment [4] it was > 100 µM; in experiment [5] it was > 100 µM (inactive); in experiment [6], > 100 µM (inactive). In addition, the GI50 in experiment [7], in experiment [8], in experiment [9], in [10], in experiment [11] and in experiment [12] was > 100 µM (inactive) each time. Moreover, the GI50 in experiment [13], in [14], in [16], in [17], in experiment [18] and in experiment [19] was > 100 µM (inactive) each time. Also, the GI50 in [20] was > 100 µM (inactive).
Take `COC(=O)[C@]1(c2ccc(N(C)C)cc2OC)C[C@@H]2CCCN(CCc3c1[nH]c1ccccc31)C2`: the GI50 was 54.1 µM (inactive) in experiment [1]; 25 µM (inactive) in experiment [2]; 29.9 µM (inactive) in experiment [3]; 20.8 µM in [4]; 11.7 µM (inactive) in experiment [5]; 10.7 µM (inactive) in experiment [6]. In addition, the GI50 in [7] was 20.2 µM (inactive); in [8] it was 23.1 µM (inactive); in experiment [9], > 43.7 µM (inactive); in experiment [10] it was 18.8 µM (inactive); in experiment [11] it was 13.3 µM (inactive); in experiment [12], 24.9 µM (inactive). The GI50 in [13] is 28.1 µM (inactive); in experiment [14] it was 19.8 µM (inactive); in experiment [15], 21.1 µM (inactive); in experiment [16], > 43.7 µM (inactive); in [17], 19.6 µM (inactive); in [18] it was 74 µM (inactive). In addition, the GI50 in experiment [19] was 12.4 µM (inactive).
For the molecule `COc1ccc(C[C@@H]2OC3(C=CC(=O)CC3Sc3ccccc3)O[C@H]2Cc2ccc(OC)cc2)cc1` (some centres undefined), the GI50 in experiment [1] was 2.05 µM (inactive); in experiment [2], 0.216 µM (active); in [4], 0.993 µM; in [5], 1.12 µM (active); in experiment [6] it was 1.14 µM (inactive); in experiment [7], 0.904 µM (active). In addition, the GI50 was 2.11 µM (inactive) in experiment [8]; 0.458 µM (active) in [9]; 1.48 µM (inactive) in experiment [10]; 1.6 µM (inactive) in experiment [11]; 0.29 µM (active) in experiment [12]; 0.31 µM (active) in [13]. Also, the GI50 in [14] is 0.107 µM (active); in experiment [15], 0.335 µM (active); in experiment [16], 1.91 µM (inactive); in experiment [17], 1.86 µM (inactive); in experiment [18], 2.61 µM (inactive); in experiment [19], 1.69 µM (inactive). Besides, in experiment [20], the GI50 is 1.67 µM (inactive).
